Where two headings read alike, the source gives them in different places.
Tests used:
[1] = tested on: blood glucose (insulin resistance biomarker); assay: Blood glucose, SAD; type: in vivo, human; conditions: mean±SEM
Experimental: (§1) All biomarkers were analyzed using standard immunoassays by PRA.
Glucocorticoids were originally named as such due to their potent and acute effects on glucose metabolism, where liver and muscle pathways for insulin signaling are rapidly and profoundly affected, creating a state of insulin resistance. […] Fasting insulin and glucose levels were assessed in all dose groups in the vamorolone Phase 1 SAD and MAD.

osteocalcin = assay: Serum osteocalcin (bone formation biomarker), MAD; type: in vivo, human; conditions: for Osteocalcin: mean±SEM
Experimental: as §1
(§2) Pharmacological glucocorticoids cause bone side effects including osteopenia and bone fragility. Bone turnover markers bridged to later bone morbidities include osteocalcin for bone formation, and CTX1 (C-terminal telopeptide of collagen 1) for bone absorption. These biomarkers predict phenotypes of osteopenia and used in clinical trials to monitor bone side effects of treatments. […] (Supplemental Fig. 2). In the vamorolone Phase 1 trial, serum osteocalcin levels were assayed prior to dosing (Day 1 predose), 8 h after initial dose (Day 1), pre-dose on day 14 of daily dosing, 8 h after the day 14 (last) dose, and during recovery days 15 and 17.

[2] = Aqueous solubility (statement); type: physicochemical; conditions: aqueous solutions
[3] = SAD food effect cohort (8 mg/kg with high fat/high calorie meal) pharmacokinetics; type: in vivo, human
Experimental: In the SAD part of the study, 7 cohorts were to be enrolled. Eight subjects were assigned to each of Cohorts 1 to 5 and 7 and received a single oral dose of vamorolone (planned as 0.1 mg/kg, 0.3 mg/kg, 1.0 mg/kg, 3.0 mg/kg, 8.0 mg/kg, and 20.0 mg/kg, respectively) or placebo under fasted conditions. Six subjects were assigned to Cohort 6 and were administered a single oral dose of 8.0 mg/kg vamorolone within 30 min of beginning a high fat/high calorie meal.
Subjects in Cohorts 1 through 5 and 7 were randomized to receive vamorolone or placebo in a 3:1 ratio (6 subjects received vamorolone, and 2 subjects received placebo) sequentially. In Cohort 1, 3 sentinel subjects were administered vamorolone or placebo in a 2:1 ratio. Following a review of sentinel safety and tolerability data (including reported adverse events [AEs], clinical laboratory tests, vital signs, and electrocardiograms [ECGs]), the remaining 5 subjects were randomized to receive vamorolone or placebo in a 4:1 ratio and dosed no earlier than 48 h after sentinel dosing. In Cohorts 2 to 5, and 7, subjects were administered vamorolone or placebo in a 3:1 ratio. Once Cohort 5 was completed and safety data had been reviewed, subjects in Cohort 6 were administered a single oral dose of 8.0 mg/kg vamorolone within 30 min of beginning a standard high fat/high calorie meal.

[4] = tested on: CTX1 (C-terminal telopeptide of collagen 1); assay: Serum CTX1 (bone resorption biomarker), MAD; type: in vivo, human; conditions: mean±SEM
Experimental: as §1, §2

[5] = MAD 1.0 mg/kg, Day 1 (8 h after initial dose)
[6] = MAD 1.0 mg/kg, Day 1 (predose), baseline
[7] = MAD 1.0 mg/kg, Day 14 (8 h after last dose)
[8] = MAD 1.0 mg/kg, Day 14 (predose)
[9] = MAD 3.0 mg/kg, Day 1 (8 h after initial dose)
[10] = MAD 3.0 mg/kg, Day 1 (predose), baseline
[11] = MAD 3.0 mg/kg, Day 14 (8 h after last dose)
[12] = MAD 3.0 mg/kg, Day 14 (predose)
[13] = MAD 9.0 mg/kg, Day 1 (8 h after initial dose)
[14] = MAD 9.0 mg/kg, Day 1 (predose), baseline
[15] = MAD 9.0 mg/kg, Day 14 (8 h after last dose)
[16] = MAD 9.0 mg/kg, Day 14 (predose)
[17] = MAD 20.0 mg/kg, Day 1 (8 h after initial dose)
[18] = MAD 20.0 mg/kg, Day 1 (predose), baseline
[19] = MAD 20.0 mg/kg, Day 14 (8 h after last dose)
[20] = MAD 20.0 mg/kg, Day 14 (predose)
[21] = MAD 20.0 mg/kg, Day 15 recovery
[22] = MAD 20.0 mg/kg, Day 17 recovery
[23] = human, plasma, single oral 8 mg/kg, fed, geometric mean (%CV)

C[C@@H]1C[C@H]2[C@@H]3CCC4=CC(=O)C=C[C@]4(C)C3=CC[C@]2(C)[C@@]1(O)C(=O)CO [vamorolone]
Blood glucose ([1]; SAD 0.1 mg/kg, 24 Hours Post Dose): 95 ± 4 mg/dL
Blood glucose ([1]; SAD 0.1 mg/kg, 48 Hours Post Dose): 95 ± 3 mg/dL
Blood glucose ([1]; SAD 0.1 mg/kg, 72 Hours Post Dose): 94 ± 4 mg/dL
Blood glucose ([1]; SAD 0.1 mg/kg, <2 hours predose, baseline): 95 ± 3 mg/dL
Blood glucose ([1]; SAD 0.1 mg/kg, Day -1, baseline): 99 ± 3 mg/dL
Blood glucose ([1]; SAD 0.1 mg/kg, Follow-up Visit): 98 ± 4 mg/dL
Blood glucose ([1]; SAD 0.1 mg/kg, Screening, baseline): 94 ± 4 mg/dL
Blood glucose ([1]; SAD 0.3 mg/kg, 24 Hours Post Dose): 91 ± 2 mg/dL
Blood glucose ([1]; SAD 0.3 mg/kg, 48 Hours Post Dose): 90 ± 2 mg/dL
Blood glucose ([1]; SAD 0.3 mg/kg, 72 Hours Post Dose): 91 ± 1 mg/dL
Blood glucose ([1]; SAD 0.3 mg/kg, <2 hours predose, baseline): 93 ± 2 mg/dL
Blood glucose ([1]; SAD 0.3 mg/kg, Day -1, baseline): 91 ± 2 mg/dL
Blood glucose ([1]; SAD 0.3 mg/kg, Follow-up Visit): 88 ± 4 mg/dL
Blood glucose ([1]; SAD 0.3 mg/kg, Screening, baseline): 93 ± 2 mg/dL
Blood glucose ([1]; SAD 1.0 mg/kg, 24 Hours Post Dose): 86 ± 3 mg/dL
Blood glucose ([1]; SAD 1.0 mg/kg, 48 Hours Post Dose): 88 ± 3 mg/dL
Blood glucose ([1]; SAD 1.0 mg/kg, 72 Hours Post Dose): 86 ± 3 mg/dL
Blood glucose ([1]; SAD 1.0 mg/kg, <2 hours predose, baseline): 93 ± 3 mg/dL
Blood glucose ([1]; SAD 1.0 mg/kg, Day -1, baseline): 92 ± 3 mg/dL
Blood glucose ([1]; SAD 1.0 mg/kg, Follow-up Visit): 93 ± 2 mg/dL
Blood glucose ([1]; SAD 1.0 mg/kg, Screening, baseline): 92 ± 3 mg/dL
Blood glucose ([1]; SAD 3.0 mg/kg, 24 Hours Post Dose): 93 ± 3 mg/dL
Blood glucose ([1]; SAD 3.0 mg/kg, 48 Hours Post Dose): 89 ± 4 mg/dL
Blood glucose ([1]; SAD 3.0 mg/kg, 72 Hours Post Dose): 88 ± 3 mg/dL
Blood glucose ([1]; SAD 3.0 mg/kg, <2 hours predose, baseline): 92 ± 4 mg/dL
Blood glucose ([1]; SAD 3.0 mg/kg, Day -1, baseline): 89 ± 3 mg/dL
Blood glucose ([1]; SAD 3.0 mg/kg, Follow-up Visit): 91 ± 5 mg/dL
Blood glucose ([1]; SAD 3.0 mg/kg, Screening, baseline): 96 ± 5 mg/dL
Blood glucose ([1]; SAD 8.0 mg/kg, 24 Hours Post Dose): 91 ± 4 mg/dL
Blood glucose ([1]; SAD 8.0 mg/kg, 48 Hours Post Dose): 87 ± 3 mg/dL
Blood glucose ([1]; SAD 8.0 mg/kg, 72 Hours Post Dose): 89 ± 4 mg/dL
Blood glucose ([1]; SAD 8.0 mg/kg, <2 hours predose, baseline): 86 ± 3 mg/dL
Blood glucose ([1]; SAD 8.0 mg/kg, Day -1, baseline): 90 ± 5 mg/dL
Blood glucose ([1]; SAD 8.0 mg/kg, Follow-up Visit): 94 ± 4 mg/dL
Blood glucose ([1]; SAD 8.0 mg/kg, Screening, baseline): 89 ± 4 mg/dL
Blood glucose ([1]; SAD 20.0 mg/kg, 24 Hours Post Dose): 91 ± 2 mg/dL
Blood glucose ([1]; SAD 20.0 mg/kg, 48 Hours Post Dose): 86 ± 2 mg/dL
Blood glucose ([1]; SAD 20.0 mg/kg, 72 Hours Post Dose): 88 ± 2 mg/dL
Blood glucose ([1]; SAD 20.0 mg/kg, <2 hours predose, baseline): 97 ± 4 mg/dL
Blood glucose ([1]; SAD 20.0 mg/kg, Day -1, baseline): 94 ± 3 mg/dL
Blood glucose ([1]; SAD 20.0 mg/kg, Follow-up Visit): 89 ± 3 mg/dL
Blood glucose ([1]; SAD 20.0 mg/kg, Screening, baseline): 93 ± 3 mg/dL
Osteocalcin (osteocalcin; [5]): 27.4 ± 9.3 ng/mL
Osteocalcin (osteocalcin; [6]): 33.2 ± 11.5 ng/mL
Osteocalcin (osteocalcin; [7]): 21.0 ± 7.8 ng/mL
Osteocalcin (osteocalcin; [8]): 30.3 ± 9.7 ng/mL
Osteocalcin (osteocalcin; MAD 1.0 mg/kg, Day 15 recovery): 28.8 ± 9.3 ng/mL
Osteocalcin (osteocalcin; MAD 1.0 mg/kg, Day 17 recovery): 25.9 ± 8.0 ng/mL
Osteocalcin (osteocalcin; [9]): 13.6 ± 11.5 ng/mL
Osteocalcin (osteocalcin; [10]): 13.7 ± 11.6 ng/mL
Osteocalcin (osteocalcin; [11]): 13.0 ± 11.0 ng/mL
Osteocalcin (osteocalcin; [12]): 17.1 ± 13.3 ng/mL
Osteocalcin (osteocalcin; MAD 3.0 mg/kg, Day 15 recovery): 16.1 ± 12.5 ng/mL
Osteocalcin (osteocalcin; MAD 3.0 mg/kg, Day 17 recovery): 13.9 ± 9.5 ng/mL
Osteocalcin (osteocalcin; [13]): 20.4 ± 4.7 ng/mL
Osteocalcin (osteocalcin; [14]): 32.9 ± 8.6 ng/mL
Osteocalcin (osteocalcin; [15]): 18.7 ± 4.3 ng/mL
Osteocalcin (osteocalcin; [16]): 24.0 ± 6.4 ng/mL
Osteocalcin (osteocalcin; MAD 9.0 mg/kg, Day 15 recovery): 26.7 ± 5.2 ng/mL
Osteocalcin (osteocalcin; MAD 9.0 mg/kg, Day 17 recovery): 33.5 ± 7.2 ng/mL
Osteocalcin (osteocalcin; [17]): 20.2 ± 4.6 ng/mL
Osteocalcin (osteocalcin; [18]): 31.5 ± 6.7 ng/mL
Osteocalcin (osteocalcin; [19]): 17.0 ± 3.7 ng/mL
Osteocalcin (osteocalcin; [20]): 32.8 ± 7.6 ng/mL
Osteocalcin (osteocalcin; [21]): 27.8 ± 5.9 ng/mL
Osteocalcin (osteocalcin; [22]): 34.6 ± 6.1 ng/mL
osteocalcin and CTX1 vs placebo (osteocalcin; any MAD dose group, through 20 mg/kg/day): no significant changes
solubility [2]: very poor solubility in aqueous solutions
AUC(0-t) ratio of the geometric means ([3]; 8 mg/kg, fed vs fasted): 2.54
AUC(inf) ratio of the geometric means ([3]; 8 mg/kg, fed vs fasted): 2.82
Cmax ratio of the geometric means ([3]; 8 mg/kg, fed vs fasted): 2.53
increase in bioavailability with a 40 g fat meal ([3]; 8 mg/kg, fed vs fasted): 250%
increase in Cmax, AUC(0-t), and AUC(inf) under fed conditions ([3]; 8 mg/kg, high calorie/high fat meal (40 g fat) vs fasted): 2.5 fold
increase in Tmax under fed conditions ([3]; 8 mg/kg, high calorie/high fat meal vs fasted): ~ 2 fold
AUC(0-inf) [3, 23]: 10200 ng·h/mL
AUC(0-t) [3, 23]: 10100 ng·h/mL
Cmax [3, 23]: 1820 ng/mL
CL/F ([3]; human, plasma, single oral 8 mg/kg, fed, geometric mean (%CV), read-out: CL/F (converted)): 13.2 mL/min/kg
Vd/F ([3]; human, plasma, single oral 8 mg/kg, fed, geometric mean (%CV), read-out: Vz/F): 2.67 L/kg
half-life ([3]; human, plasma, single oral 8 mg/kg, fed, geometric mean (%CV), read-out: t½ (converted)): 2.35 h
k el ([3]; human, plasma, single oral 8 mg/kg, fed, geometric mean (%CV), read-out: λz (converted)): 8.19e-05 s⁻¹
Tmax ([3]; human, plasma, single oral 8 mg/kg, fed, median): 4 h
CL/F ([3]; single oral 8 mg/kg, fed, geometric mean (%CV)): 66.7 (28.4) (6) L/h
CTX1 [4, 5]: 0.22 ± 0.02 ng/mL
CTX1 [4, 6]: 0.50 ± 0.11 ng/mL
CTX1 [4, 7]: 0.22 ± 0.01 ng/mL
CTX1 [4, 8]: 0.58 ± 0.12 ng/mL
CTX1 ([4]; MAD 1.0 mg/kg, Day 15 recovery): 0.68 ± 0.16 ng/mL
CTX1 ([4]; MAD 1.0 mg/kg, Day 17 recovery): 0.55 ± 0.09 ng/mL
CTX1 [4, 9]: 0.18 ± 0.00 ng/mL
CTX1 [4, 10]: 0.31 ± 0.05 ng/mL
CTX1 [4, 11]: 0.18 ± 0.00 ng/mL
CTX1 [4, 12]: 0.48 ± 0.13 ng/mL
CTX1 ([4]; MAD 3.0 mg/kg, Day 15 recovery): 0.48 ± 0.10 ng/mL
CTX1 ([4]; MAD 3.0 mg/kg, Day 17 recovery): 0.46 ± 0.12 ng/mL
CTX1 [4, 13]: 0.19 ± 0.006 ng/mL
CTX1 [4, 14]: 0.59 ± 0.11 ng/mL
CTX1 [4, 15]: 0.23 ± 0.03 ng/mL
CTX1 [4, 16]: 0.73 ± 0.14 ng/mL
CTX1 ([4]; MAD 9.0 mg/kg, Day 15 recovery): 0.77 ± 0.13 ng/mL
CTX1 ([4]; MAD 9.0 mg/kg, Day 17 recovery): 0.60 ± 0.10 ng/mL
CTX1 [4, 17]: 0.22 ± 0.02 ng/mL
CTX1 [4, 18]: 0.70 ± 0.14 ng/mL
CTX1 [4, 19]: 0.29 ± 0.06 ng/mL
CTX1 [4, 20]: 0.88 ± 0.12 ng/mL
CTX1 [4, 21]: 0.92 ± 0.14 ng/mL
CTX1 [4, 22]: 0.76 ± 0.10 ng/mL
